Values quoted from earlier work as cited in patent publication US7682606B2, “Methods of producing edible fungi containing activated folates and nutritional supplements containing activated folates” (Jarrow Formulas, Inc., priority 2003, dated 2010).

How the values were obtained:
homocysteine = settings: human
[1] = animal

Compound	Reducing homocysteine, compared with racemic D,L mixtures (homocysteine)	Intestinal absorption after oral administration [1]
CN1c2c(nc(N)[nH]c2=O)NCC1CNc1ccc(C(=O)N[C@@H](CCC(=O)O)C(=O)O)cc1 (single isomer, unassigned) [L-isomer of 5-MTHF, 5-methyltetrahydrofolate]	superior to racemic mixtures	–
CN1c2c(nc(N)[nH]c2=O)NCC1CNc1ccc(C(=O)N[C@@H](CCC(=O)O)C(=O)O)cc1 (some centres unmarked) [5-MTHF, 5-methyltetrahydrofolate]	–	readily absorbed from the intestinal tract without degradation
